Results reported in ChEMBL document CHEMBL4665869, “New thiazolopyrimidine as anticancer agents: Synthesis, biological evaluation, DNA binding, molecular modeling and ADMET study” (Bioorg Med Chem Lett, 2020).
≈ marks a conversion by molar mass, not a printed value.

Assays:
LOX IMVI = assay: Growth inhibition of human LOX IMVI cells at 10 uM relative to control; assay type: functional; settings: read-out: GI
MDA-MB-468 = assay: Growth inhibition of human MDA-MB-468 cells at 10 uM relative to control; assay type: functional; settings: read-out: GI
T47D = assay: Growth inhibition of human T47D cells at 10 uM relative to control; assay type: functional; settings: read-out: GI
CCRF-CEM = assay: Growth inhibition of human CCRF-CEM cells at 10 uM relative to control; assay type: functional; settings: read-out: GI
HL-60(TB) = assay: Growth inhibition of human HL-60(TB) cells at 10 uM relative to control; assay type: functional; settings: read-out: GI
K562 = assay: Growth inhibition of human K562 cells at 10 uM relative to control; assay type: functional; settings: read-out: GI
MOLT-4 = assay: Growth inhibition of human MOLT-4 cells at 10 uM relative to control; assay type: functional; settings: read-out: GI
RPMI-8226 = assay: Growth inhibition of human RPMI-8226 cells at 10 uM relative to control; assay type: functional; settings: read-out: GI
SR = assay: Growth inhibition of human SR cells at 10 uM relative to control; assay type: functional; settings: read-out: GI
A549 = assay: Growth inhibition of human A549 cells at 10 uM relative to control; assay type: functional; settings: read-out: GI
HOP-62 = assay: Growth inhibition of human HOP-62 cells at 10 uM relative to control; assay type: functional; settings: read-out: GI
HOP-92 = assay: Growth inhibition of human HOP-92 cells at 10 uM relative to control; assay type: functional; settings: read-out: GI
NCI-H226 = assay: Growth inhibition of human NCI-H226 cells at 10 uM relative to control; assay type: functional; settings: read-out: GI
NCI-H23 = assay: Growth inhibition of human NCI-H23 cells at 10 uM relative to control; assay type: functional; settings: read-out: GI
NCI-H322M = assay: Growth inhibition of human NCI-H322M cells at 10 uM relative to control; assay type: functional; settings: read-out: GI
NCI-H460 = assay: Growth inhibition of human NCI-H460 cells at 10 uM relative to control; assay type: functional; settings: read-out: GI
NCI-H522 = assay: Growth inhibition of human NCI-H522 cells at 10 uM relative to control; assay type: functional; settings: read-out: GI
SW-620 = assay: Growth inhibition of human SW-620 cells at 10 uM relative to control; assay type: functional; settings: read-out: GI
COLO 205 = assay: Growth inhibition of human COLO 205 cells at 10 uM relative to control; assay type: functional; settings: read-out: GI
HCC 2998 = assay: Growth inhibition of human HCC 2998 cells at 10 uM relative to control; assay type: functional; settings: read-out: GI
HCT-116 = assay: Growth inhibition of human HCT-116 cells at 10 uM relative to control; assay type: functional; settings: read-out: GI
HCT-15 = assay: Growth inhibition of human HCT-15 cells at 10 uM relative to control; assay type: functional; settings: read-out: GI
HT-29 = assay: Growth inhibition of human HT-29 cells at 10 uM relative to control; assay type: functional; settings: read-out: GI
KM12 = assay: Growth inhibition of human KM12 cells at 10 uM relative to control; assay type: functional; settings: read-out: GI
SF-268 = assay: Growth inhibition of human SF-268 cells at 10 uM relative to control; assay type: functional; settings: read-out: GI
SF-295 = assay: Growth inhibition of human SF-295 cells at 10 uM relative to control; assay type: functional; settings: read-out: GI
SF-539 = assay: Growth inhibition of human SF-539 cells at 10 uM relative to control; assay type: functional; settings: read-out: GI
SNB-19 = assay: Growth inhibition of human SNB-19 cells at 10 uM relative to control; assay type: functional; settings: read-out: GI
SNB-75 = assay: Growth inhibition of human SNB-75 cells at 10 uM relative to control; assay type: functional; settings: read-out: GI
U-251 = assay: Growth inhibition of human U-251 cells at 10 uM relative to control; assay type: functional; settings: read-out: GI
Malme-3M = assay: Growth inhibition of human Malme-3M cells at 10 uM relative to control; assay type: functional; settings: read-out: GI
M14 = assay: Growth inhibition of human M14 cells at 10 uM relative to control; assay type: functional; settings: read-out: GI
MDA-MB-435 = assay: Growth inhibition of human MDA-MB-435 cells at 10 uM relative to control; assay type: functional; settings: read-out: GI
SK-MEL-2 = assay: Growth inhibition of human SK-MEL-2 cells at 10 uM relative to control; assay type: functional; settings: read-out: GI
SK-MEL-28 = assay: Growth inhibition of human SK-MEL-28 cells at 10 uM relative to control; assay type: functional; settings: read-out: GI
SK-MEL-5 = assay: Growth inhibition of human SK-MEL-5 cells at 10 uM relative to control; assay type: functional; settings: read-out: GI
UACC-257 = assay: Growth inhibition of human UACC-257 cells at 10 uM relative to control; assay type: functional; settings: read-out: GI
UACC-62 = assay: Growth inhibition of human UACC-62 cells at 10 uM relative to control; assay type: functional; settings: read-out: GI
IGROV-1 = assay: Growth inhibition of human IGROV-1 cells at 10 uM relative to control; assay type: functional; settings: read-out: GI
OVCAR-4 = assay: Growth inhibition of human OVCAR-4 cells at 10 uM relative to control; assay type: functional; settings: read-out: GI
OVCAR-5 = assay: Growth inhibition of human OVCAR-5 cells at 10 uM relative to control; assay type: functional; settings: read-out: GI
OVCAR-8 = assay: Growth inhibition of human OVCAR-8 cells at 10 uM relative to control; assay type: functional; settings: read-out: GI
NCI/ADR-RES = assay: Growth inhibition of human NCI/ADR-RES cells at 10 uM relative to control; assay type: functional; settings: read-out: GI
SK-OV-3 = assay: Growth inhibition of human SK-OV-3 cells at 10 uM relative to control; assay type: functional; settings: read-out: GI
786-0 = assay: Growth inhibition of human 786-0 cells at 10 uM relative to control; assay type: functional; settings: read-out: GI
A498 = assay: Growth inhibition of human A498 cells at 10 uM relative to control; assay type: functional; settings: read-out: GI
ACHN = assay: Growth inhibition of human ACHN cells at 10 uM relative to control; assay type: functional; settings: read-out: GI
CAKI-1 = assay: Growth inhibition of human CAKI-1 cells at 10 uM relative to control; assay type: functional; settings: read-out: GI
RXF 393 = assay: Growth inhibition of human RXF 393 cells at 10 uM relative to control; assay type: functional; settings: read-out: GI
SN12C = assay: Growth inhibition of human SN12C cells at 10 uM relative to control; assay type: functional; settings: read-out: GI
TK-10 = assay: Growth inhibition of human TK-10 cells at 10 uM relative to control; assay type: functional; settings: read-out: GI
UO-31 = assay: Growth inhibition of human UO-31 cells at 10 uM relative to control; assay type: functional; settings: read-out: GI
PC-3 = assay: Growth inhibition of human PC-3 cells at 10 uM relative to control; assay type: functional; settings: read-out: GI
DU-145 = assay: Growth inhibition of human DU-145 cells at 10 uM relative to control; assay type: functional; settings: read-out: GI
MCF7 = assay: Growth inhibition of human MCF7 cells at 10 uM relative to control; assay type: functional; settings: read-out: GI
MDA-MB-231 = assay: Growth inhibition of human MDA-MB-231 cells at 10 uM relative to control; assay type: functional; settings: read-out: GI
Hs-578T = assay: Growth inhibition of human Hs-578T cells at 10 uM relative to control; assay type: functional; settings: read-out: GI
BT-549 = assay: Growth inhibition of human BT-549 cells at 10 uM relative to control; assay type: functional; settings: read-out: GI
DNA = assay: Displacement of methyl green from DNA (unknown origin) assessed as DNA intercalation after 24 hrs by colorimetric assay; assay type: nucleic-acid assay

CC1=CN2C(=NC(/C=C/c3ccc(C)cc3)=CC2c2ccc(C)cc2)S1 (centres undefined)
inhibition of growth at 10 µM (LOX IMVI): < 10% | inhibition of growth at 10 µM (MDA-MB-468): 11.3% | inhibition of growth at 10 µM (T47D): < 10% | inhibition of growth at 10 µM (CCRF-CEM): < 10% | inhibition of growth at 10 µM (HL-60(TB)): < 10% | inhibition of growth at 10 µM (K562): < 10% | inhibition of growth at 10 µM (MOLT-4): 12.6% | inhibition of growth at 10 µM (RPMI-8226): < 10% | inhibition of growth at 10 µM (SR): < 10% | inhibition of growth at 10 µM (A549): < 10% | inhibition of growth at 10 µM (HOP-62): < 10% | inhibition of growth at 10 µM (HOP-92): < 10% | inhibition of growth at 10 µM (NCI-H226): < 10% | inhibition of growth at 10 µM (NCI-H23): < 10% | inhibition of growth at 10 µM (NCI-H322M): < 10% | inhibition of growth at 10 µM (NCI-H460): < 10% | inhibition of growth at 10 µM (NCI-H522): 10.9% | inhibition of growth at 10 µM (SW-620): < 10% | inhibition of growth at 10 µM (COLO 205): < 10% | inhibition of growth at 10 µM (HCC 2998): < 10% | inhibition of growth at 10 µM (HCT-116): < 10% | inhibition of growth at 10 µM (HCT-15): < 10% | inhibition of growth at 10 µM (HT-29): < 10% | inhibition of growth at 10 µM (KM12): < 10% | inhibition of growth at 10 µM (SF-268): < 10% | inhibition of growth at 10 µM (SF-295): < 10% | inhibition of growth at 10 µM (SF-539): < 10% | inhibition of growth at 10 µM (SNB-19): < 10% | inhibition of growth at 10 µM (SNB-75): 13.7% | inhibition of growth at 10 µM (U-251): < 10% | inhibition of growth at 10 µM (Malme-3M): < 10% | inhibition of growth at 10 µM (M14): < 10% | inhibition of growth at 10 µM (MDA-MB-435): < 10% | inhibition of growth at 10 µM (SK-MEL-2): < 10% | inhibition of growth at 10 µM (SK-MEL-28): < 10% | inhibition of growth at 10 µM (SK-MEL-5): < 10% | inhibition of growth at 10 µM (UACC-257): < 10% | inhibition of growth at 10 µM (UACC-62): < 10% | inhibition of growth at 10 µM (IGROV-1): < 10% | inhibition of growth at 10 µM (OVCAR-4): < 10% | inhibition of growth at 10 µM (OVCAR-5): < 10% | inhibition of growth at 10 µM (OVCAR-8): < 10% | inhibition of growth at 10 µM (NCI/ADR-RES): < 10% | inhibition of growth at 10 µM (SK-OV-3): < 10% | inhibition of growth at 10 µM (786-0): < 10% | inhibition of growth at 10 µM (A498): < 10% | inhibition of growth at 10 µM (ACHN): < 10% | inhibition of growth at 10 µM (CAKI-1): < 10% | inhibition of growth at 10 µM (RXF 393): < 10% | inhibition of growth at 10 µM (SN12C): < 10% | inhibition of growth at 10 µM (TK-10): < 10% | inhibition of growth at 10 µM (UO-31): 19.1% | inhibition of growth at 10 µM (PC-3): < 10% | inhibition of growth at 10 µM (DU-145): < 10% | inhibition of growth at 10 µM (MCF7): < 10% | inhibition of growth at 10 µM (MDA-MB-231): < 10% | inhibition of growth at 10 µM (Hs-578T): < 10% | inhibition of growth at 10 µM (BT-549): < 10% | IC50 (DNA): 87.57 µg/mL (≈ 244 µM)
